Reference: US20250052744A1, “Dyes and Uses Thereof” (The University of Liverpool, priority 2021, published 2025)

Legend:
Test in all cases: Qualitative dye staining on agarose pads (EVOS M7000)
Format in all cases: cell-based
Set-up in all cases: key to Relative fluorescent intensity: Very high: If the cells looked twice as big in the fluorescent channel, it was marked as having “very high” relative fluorescent intensity; High: if the cells looked bigger in the fluorescent channel, it was marked as having “high” relative fluorescent intensity; Medium: If the cells looked almost the same size in the fluorescent channel and the bright field, it was marked as having “medium” relative fluorescent intensity; Low: If the cells looked smaller in the fluorescent channel as compared to the brightfield but still the whole cell was visible, it was marked as having “low” relative fluorescent intensity; Negligible: If only a few traces of a cell was visible in the fluorescent channel, it was marked as having “negligible” relative fluorescent intensity
Conditions in all cases: DiSC3(5) 3 μM, SYBR Green I 10×, SYTO 13 3 μM, FM4-64 15 μM
Enterococcus faecalis = tested on: Enterococcus faecalis
Proteus vulgaris = tested on: Proteus vulgaris
Streptococcus agalactiae = tested on: Streptococcus agalactiae
[1] = Table 7 commercial strain Enterococcus faecalis NCTCT 12697
[2] = Table 8 sample Enterococcus faecalis (001)
[3] = Table 8 sample Enterococcus faecalis (002)
[4] = Table 8 sample Enterococcus faecalis (003)
[5] = Table 8 sample Proteus vulgaris (024)
[6] = Table 8 sample Proteus vulgaris (025)
[7] = Table 8 sample Proteus vulgaris (026)
[8] = Table 6 thresholds, Streptococcus agalactiae
[9] = Table 7 commercial strain Streptococcus agalactiae NCTC 11239
[10] = Table 8 sample Streptococcus agalactiae (081)
[11] = Table 8 sample Streptococcus agalactiae (082)
[12] = Table 8 sample Streptococcus agalactiae (083)

Compound: CCCN1C(=CC=CC=Cc2sc3ccccc3[n+]2CCC)Sc2ccccc21.[I-] [DiSC3(5), 3,3′-Dipropylthiadicarbocyanine Iodide]
- Percentage of cells stained (Enterococcus faecalis; [1]): Half
- Relative fluorescent intensity (Enterococcus faecalis; [1]): Low
- Percentage of cells stained (Enterococcus faecalis; [2]): Half
- Relative fluorescent intensity (Enterococcus faecalis; [2]): Low
- Percentage of cells stained (Enterococcus faecalis; [3]): Half
- Relative fluorescent intensity (Enterococcus faecalis; [3]): Low
- Percentage of cells stained (Enterococcus faecalis; [4]): Half
- Relative fluorescent intensity (Enterococcus faecalis; [4]): Low
- Percentage of cells stained (Proteus vulgaris; [5]): Almost all
- Relative fluorescent intensity (Proteus vulgaris; [5]): Low
- Percentage of cells stained (Proteus vulgaris; [6]): Few
- Relative fluorescent intensity (Proteus vulgaris; [6]): Medium
- Percentage of cells stained (Proteus vulgaris; [7]): Almost all
- Relative fluorescent intensity (Proteus vulgaris; [7]): Low
- Percentage of cells stained (Streptococcus agalactiae; [8]): Almost all
- Relative fluorescent intensity (Streptococcus agalactiae; [8]): low and Low
- Percentage of cells stained (Streptococcus agalactiae; [9]): Almost all
- Relative fluorescent intensity (Streptococcus agalactiae; [9]): Low
- Percentage of cells stained (Streptococcus agalactiae; [10]): Almost all
- Relative fluorescent intensity (Streptococcus agalactiae; [10]): Low
- Percentage of cells stained (Streptococcus agalactiae; [11]): Almost all
- Relative fluorescent intensity (Streptococcus agalactiae; [11]): Low
- Percentage of cells stained (Streptococcus agalactiae; [12]): Almost all
- Relative fluorescent intensity (Streptococcus agalactiae; [12]): Low

Compound: CCN(CC)c1ccc(C=CC=CC=Cc2cc[n+](CCC[N+](CC)(CC)CC)cc2)cc1.[Br-].[Br-] [FM 4-64, N-(3-Triethylammoniumpropyl)-4-(6-(4-(Diethylamino) Phenyl) Hexatrienyl) Pyridinium Dibromide]
- Percentage of cells stained (Enterococcus faecalis; [1]): Almost all
- Relative fluorescent intensity (Enterococcus faecalis; [1]): Medium
- Percentage of cells stained (Enterococcus faecalis; [2]): Almost all
- Relative fluorescent intensity (Enterococcus faecalis; [2]): Medium
- Percentage of cells stained (Enterococcus faecalis; [3]): Almost all
- Relative fluorescent intensity (Enterococcus faecalis; [3]): Medium
- Percentage of cells stained (Enterococcus faecalis; [4]): Almost all
- Relative fluorescent intensity (Enterococcus faecalis; [4]): Medium
- Percentage of cells stained (Proteus vulgaris; [5]): Few
- Relative fluorescent intensity (Proteus vulgaris; [5]): Negligible
- Percentage of cells stained (Proteus vulgaris; [6]): Few
- Relative fluorescent intensity (Proteus vulgaris; [6]): Negligible
- Percentage of cells stained (Proteus vulgaris; [7]): Few
- Relative fluorescent intensity (Proteus vulgaris; [7]): Negligible
- Percentage of cells stained (Streptococcus agalactiae; [8]): Almost all
- Relative fluorescent intensity (Streptococcus agalactiae; [8]): High
- Percentage of cells stained (Streptococcus agalactiae; [9]): Almost all
- Relative fluorescent intensity (Streptococcus agalactiae; [9]): High
- Percentage of cells stained (Streptococcus agalactiae; [10]): Almost all
- Relative fluorescent intensity (Streptococcus agalactiae; [10]): High
- Percentage of cells stained (Streptococcus agalactiae; [11]): Almost all
- Relative fluorescent intensity (Streptococcus agalactiae; [11]): High
- Percentage of cells stained (Streptococcus agalactiae; [12]): Almost all
- Relative fluorescent intensity (Streptococcus agalactiae; [12]): High

Compound: CCCN(CCCN(C)C)c1cc(/C=C2/Sc3ccccc3N2C)c2ccccc2[n+]1-c1ccccc1 [SYBR Green I, N′,N′-dimethyl-N-[4-[(E)-(3-methyl-1,3-benzothiazol-2-ylidene)methyl]-1-phenylquinolin-1-ium-2-yl]-N-propylpropane-1,3-diamine]
- Percentage of cells stained (Enterococcus faecalis; [1]): Almost all
- Relative fluorescent intensity (Enterococcus faecalis; [1]): Medium
- Percentage of cells stained (Enterococcus faecalis; [2]): Almost all
- Relative fluorescent intensity (Enterococcus faecalis; [2]): Medium
- Percentage of cells stained (Enterococcus faecalis; [3]): Almost all
- Relative fluorescent intensity (Enterococcus faecalis; [3]): Medium
- Percentage of cells stained (Enterococcus faecalis; [4]): Almost all
- Relative fluorescent intensity (Enterococcus faecalis; [4]): Medium
- Percentage of cells stained (Proteus vulgaris; [5]): Half
- Relative fluorescent intensity (Proteus vulgaris; [5]): Low
- Percentage of cells stained (Proteus vulgaris; [6]): Half
- Relative fluorescent intensity (Proteus vulgaris; [6]): Low
- Percentage of cells stained (Proteus vulgaris; [7]): Almost all
- Relative fluorescent intensity (Proteus vulgaris; [7]): Low
- Percentage of cells stained (Streptococcus agalactiae; [8]): Almost all
- Relative fluorescent intensity (Streptococcus agalactiae; [8]): very high
- Relative fluorescent intensity (Streptococcus agalactiae; Table 6 thresholds, Streptococcus agalactiae, listed as SYBR Green): Very high
- Percentage of cells stained (Streptococcus agalactiae; [9]): Almost all
- Relative fluorescent intensity (Streptococcus agalactiae; [9]): Very high
- Percentage of cells stained (Streptococcus agalactiae; [10]): Almost all
- Relative fluorescent intensity (Streptococcus agalactiae; [10]): Very high
- Percentage of cells stained (Streptococcus agalactiae; [11]): Almost all
- Relative fluorescent intensity (Streptococcus agalactiae; [11]): Very high
- Percentage of cells stained (Streptococcus agalactiae; [12]): Almost all
- Relative fluorescent intensity (Streptococcus agalactiae; [12]): Very high
